Data set [1] concerns the target GST-JNK3 (Homo sapiens, UniProt P53779). Put plainly: JNK3 in vitro assay (SPA, GST-c-Jun phosphorylation). The following applies: recombinant pre-activated GST-JNK3, 2 μM ATP. It counts as biochemical. As for the experimental part: (§1) JNK 2 and 3 in vitro assays: JNK3 and/or 2 assays are performed in 96 well MTT plates, by incubation of 0.5 μg of recombinant, pre-activated GST-JNK3 or GST-JNK2 with 1 μg of recombinant, biotinylated GST-c-Jun and 2 μM ^33γ-ATP (2 nCi/μl), in the presence or absence of sulfonamide inhibitors if formula I and in a reaction volume of 50 μl containing 50 mM Tris-HCl, pH 8.0; 10 mM MgCl2; 1 mM Dithiothreitol, and 100 μM NaVO4. The incubation is performed for 120 min. at R.T and stopped upon addition of 200 μl of a solution containing 250 μg of Streptavidine-coated SPA beads (Amersham, Inc.)*, 5 mM EDTA, 0.1% Triton X-100 and 50 μM ATP, in phosphate saline buffer. After incubation for 60 minutes at RT, beads are sedimented by centrifugation at 1500×g for 5 minutes, resuspended in 200 μl of PBS containing 5 mM EDTA, 0.1% Triton X-100 and 50 μM ATP and the radioactivity measured in a scintillation β counter, following sedimentation of the beads as described above. By substituting GST-c Jun for biotinylated GST-1ATF2 or myelin basic protein, this assay can be used to measure inhibition of preactivated p38 and ERK MAP Kinases, respectively.
(§2) The values indicated in respect of JNK2 and 3, p38 and ERK2 refer to the IC50 (μM), i.e. the amount necessary to achieve 50% inhibition of said target (e.g. JNK2). From the above table it could be derived that said test compounds according to formula I do have a significant effect both on JNK2 and 3, but virtually no effect onto p38 and ERK2, thus delivering a quite selective inhibitory effect.

For data set [2], the target named is GST-JNK2 (Homo sapiens, UniProt P45984). Put plainly: JNK2 in vitro assay (SPA, GST-c-Jun phosphorylation). It counts as biochemical. The settings on record: recombinant pre-activated GST-JNK2, 2 μM ATP. As for the experimental part: as §1, §2
For data set [3], the target named is p38 (Homo sapiens, UniProt Q16539). In words: p38 in vitro kinase assay (SPA, GST-ATF2 substrate). Type of data set: biochemical. The following applies: preactivated p38. As for the experimental part:
as §1, §2

Data set [4] addresses ERK2 (Homo sapiens, UniProt P28482). Put plainly: ERK2 in vitro kinase assay (SPA, myelin basic protein substrate). Type of data set: biochemical. The following applies: preactivated ERK. As for the experimental part: as §1, §2
The test system of data set [5] is IL-2 release by Jurkat cells. In words: IL-2 release assay (PMA+Ionomycine stimulated, ELISA). Type of data set: cell-based. The following applies: Homo sapiens, 24 hours, read-out: % Inhibition of IL2 Production @ 3 uM. As for the experimental part: Jurkat cells, a human T cell leukemia cell line (American Type Culture Collection # TIB 152) were cultured in RPMI 1640 medium (Gibco, BRL) supplemented with 10% of heatactivated FCS, Glutamine and Penstrep. The cell suspension in the medium is diluted to give 2.10^6 cells/mL. The cells were plated (2.10^5 cells/well) on a 96-well plate containing different concentration of test compound (final concentration of compounds, 10, 3, 1, 0.3, 0.1 μM). This mixture is incubated 30 minutes at 37° C. in a humidified CO2 atmosphere. Cells were then treated with 10 ul PMA+Ionomycine (0.1 μM and 1 μM final concentration) in all wells except negative control. In wells without compounds, 10 μl of RPMI 2% DMSO (=0.1% final) is added. Cells are incubated 24 hours at 37° C. and then the supernatant harvested (freeze at −20° C. if not used the same day) prior to performing IL-2 ELISA test on the supernatant.
IL-2 release into the medium by PMA+Iono-stimulated Jurkat cells, in presence or absence of test compounds is assayed by ELISA. Following the procedure described below
Transfer 100 μl capture antibody diluted in PBS at 5 μg/mL into a 96 well ELISA plate and incubate overnight at room temperature.
Aspirate each well and wash 3 times with Wash buffer. After the last wash, damp the plate.
1. Saturate with 200 μl PBS-10% FCS. Incubate 1 hour at room temperature.
2. Repeat the wash step 2.
• 1. Add 100 μl of sample or standard (2000, 1000, 500, 250, 125, 62.5, 31.25 pg/mL) and incubate 2 hours at room temperature. • 2. Wash 3 times. • 3. Add 100 μl of biotinylated anti-human IL-2 at 12.5 ng/mL. Incubate 2 hours at room temperature. • 4. Wash 3 times. • 5. Add 100 μl streptavidin-HRP (Zymed #43-4323) at 1:10,000. Incubate 30 minutes at room temperature. • 6. Wash 3 times • 7. Add 100 μl substrate solution (citric acid/Na2HPO4 (1:1)+H2O2 1:2000+OPD). Incubate 20-30 minutes at room temperature. • 8. Add 50 μl of stop solution to each well. • 9. Determine optical density using a microtiter plate reader set to 450 nm with correction at 570 nm.
Background: ELISA stands for enzyme-linked immunosorbent assay.

For data set [6], the system named is Hlr c-Jun HeLa cells. In words: C-Jun reporter assay (MEKK1 induced, Dual-Luciferase). Type of data set: cell-based. The following applies: Homo sapiens. On the procedure:
Hlr c-Jun HeLa cells are cultured in DMEM High Glc supplemented with 10% FCS (Sigma), 2 mM Glutamine (Gibco), P/S, Hygromycin b 100 μg/mL and G418 250 μg/mL
The cell suspension are diluted with medium to give about 3.5×10^6 cells/mL and […] of cell suspension are put onto 210 cm culture dishes containing 9 mL of culture medium. The plates are incubated at 37° C. in a humidified atmosphere of 5% CO2 in air
• Control: 0.2 μg pTK Renilla, […] pBluescript KS, 500 μl OPTIMEM (GIBCO), 18 μl Fugene 6 • Induced: 0.1 μg pMEKK1, 0.2 μg pTK Renilla, 5.7 μg pBluescript KS, 500 μl OPTIMEM (GIBCO), 18 μl Fugene 630′ RT
The transfection mixture is added to the plated cells. The plates are incubated over night at 37° C. in a humidified atmosphere of 5% CO2 in air
A 96 wells plate containing 100 μl of culture medium per well is prepared Negative control (vehicle): 2 μl of DMSO is added to the 100 μl (in triplicate). Compound: 2 μl of Hit compound stock dilution are added to the 100 μl (in triplicate). The transfected cells are trypsinised and ressuspend in 12 mL of culture medium. 100 μl of the dilution are added to each of the 96 wells plate.
The plate is incubated over night at 37° C. in a humidified atmosphere of 5% CO2 in air
The medium is removed from the plate and the cells washed two times with 100 μl PBS Completely remove the rinse solution before applying PLB reagent. Dispense into each culture well […] of 1X PLB. Place the culture plates on a rocking platform or orbital shaker with gentle
rocking/shaking to ensure complete and even coverage of the cell monolayer with 1X PLB. Rock the culture plates at room temperature for 15 minutes. Transfer 20 μl of the lysate into a white opaque 96 wells plate. Read in a luminometer. • Inject 50 μl of Luciferase Assay Reagent II wait 5″, read 10″ • Inject 50 μl of Stop & Glo® Reagent wait 5″, read 10″
Check RLU Luciferase/RLU Renilla*1000
A general note: Reporter assays use an easily measured gene product as a stand-in for the process of interest.

ERK2, sequence (P28482 whole entry, species assumed): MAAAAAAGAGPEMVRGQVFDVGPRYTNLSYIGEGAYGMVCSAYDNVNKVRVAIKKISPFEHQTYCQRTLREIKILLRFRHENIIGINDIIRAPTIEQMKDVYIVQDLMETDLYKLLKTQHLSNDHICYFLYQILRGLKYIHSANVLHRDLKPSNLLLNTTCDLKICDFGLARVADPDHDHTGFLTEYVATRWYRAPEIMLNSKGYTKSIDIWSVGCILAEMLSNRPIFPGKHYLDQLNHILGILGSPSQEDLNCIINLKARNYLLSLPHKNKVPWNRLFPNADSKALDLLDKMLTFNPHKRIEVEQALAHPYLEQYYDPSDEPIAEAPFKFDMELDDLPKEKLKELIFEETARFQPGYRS
GST-JNK2, sequence (P45984 whole entry): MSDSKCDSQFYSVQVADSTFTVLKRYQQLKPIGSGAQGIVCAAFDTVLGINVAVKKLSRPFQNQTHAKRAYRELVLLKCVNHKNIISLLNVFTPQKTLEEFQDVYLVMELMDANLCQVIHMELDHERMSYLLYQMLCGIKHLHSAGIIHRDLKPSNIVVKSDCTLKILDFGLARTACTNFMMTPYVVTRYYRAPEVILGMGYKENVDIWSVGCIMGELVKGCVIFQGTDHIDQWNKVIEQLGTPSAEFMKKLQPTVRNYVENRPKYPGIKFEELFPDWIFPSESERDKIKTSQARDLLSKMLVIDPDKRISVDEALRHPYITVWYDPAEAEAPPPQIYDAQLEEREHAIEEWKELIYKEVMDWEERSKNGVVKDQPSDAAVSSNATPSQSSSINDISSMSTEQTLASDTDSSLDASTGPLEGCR
p38, sequence (Q16539 whole entry): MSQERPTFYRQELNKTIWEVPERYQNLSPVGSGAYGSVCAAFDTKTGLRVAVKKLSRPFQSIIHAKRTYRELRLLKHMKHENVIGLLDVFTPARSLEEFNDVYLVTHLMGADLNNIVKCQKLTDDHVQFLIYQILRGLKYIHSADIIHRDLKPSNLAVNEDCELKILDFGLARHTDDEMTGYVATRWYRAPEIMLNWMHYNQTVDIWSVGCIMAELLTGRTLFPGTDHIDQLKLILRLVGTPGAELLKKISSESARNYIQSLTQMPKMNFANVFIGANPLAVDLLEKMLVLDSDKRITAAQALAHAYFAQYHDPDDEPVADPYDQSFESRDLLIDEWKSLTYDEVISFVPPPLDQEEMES
GST-JNK3, sequence (P53779 whole entry): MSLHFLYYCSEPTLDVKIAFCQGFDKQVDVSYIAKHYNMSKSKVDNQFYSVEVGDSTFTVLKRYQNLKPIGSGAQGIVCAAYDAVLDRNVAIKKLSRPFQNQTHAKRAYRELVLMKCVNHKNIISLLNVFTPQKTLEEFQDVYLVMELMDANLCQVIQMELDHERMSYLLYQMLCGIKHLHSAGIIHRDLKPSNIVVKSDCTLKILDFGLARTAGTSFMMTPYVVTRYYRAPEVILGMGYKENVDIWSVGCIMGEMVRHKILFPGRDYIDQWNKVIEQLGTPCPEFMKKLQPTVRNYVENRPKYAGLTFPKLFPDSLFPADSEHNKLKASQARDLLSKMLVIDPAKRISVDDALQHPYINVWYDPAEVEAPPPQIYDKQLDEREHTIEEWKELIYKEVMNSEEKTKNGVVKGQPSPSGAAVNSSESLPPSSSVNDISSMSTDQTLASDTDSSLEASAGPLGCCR

`O=C(NCc1ccc(S(=O)(=O)NNC(=O)c2csc(COc3ccccc3Cl)n2)s1)c1ccc(Cl)cc1` [Example 13, 4-chloro-N-[(5-{[2-({2-[(2-chlorophenoxy)methyl]-1,3-thiazol-4-y1}carbonyl)hydrazino]sulfonyl}thien-2-yl)methyl]benzamide]: the half-maximal inhibitory concentration (IC50) (in general, the concentration that inhibits the measured activity by half) is 310 nM in data set [1], 970 nM in data set [2], over 30000 nM in data set [3] and over 30000 nM in data set [4]. Besides, in data set [5], the inhibition (commonly how much of the control response was suppressed) at 3 µM is over 30%. The compound also had an inhibition at 10 µM in data set [6] of over 20%.

`O=C(CCCNc1ncc(C(F)(F)F)cc1Cl)NNS(=O)(=O)c1ccc(CNC(=O)c2ccc[nH]c2=O)s1` [Example 75, N-[(5-{[2-(4-{[3-chloro-5-(trifluoromethyl)pyridin-2-yl]amino}butanoyl)hydrazino]sulfonyl}thien-2-yl)methyl]-2-oxo-1,2-dihydropyridine-3-carboxamide]: the 50% inhibitory concentration (IC50) in data set [1] was 410 nM; in data set [2], 560 nM; in data set [3] it was over 30000 nM; in data set [4], over 30000 nM. Besides, the inhibition at 3 µM in data set [5] is over 30%. The compound further registered an inhibition at 10 µM in data set [6] of over 20%.

Regarding `O=C(NCc1ccc(S(=O)(=O)NNC(=O)c2csc(-c3ccc(C4SCCS4)cc3)n2)s1)c1ccc(Cl)cc1` [Example 1, 4-chloro-N-[(5-{[2-({2-[4-(1,3-dithiolan-2-yl)phenyl]-1,3-thiazol-4-yl}carbonyl)-hydrazino]sulfonyl}thien-2-yl)methyl]benzamide], the half-maximal inhibitory concentration (IC50) in data set [1] is 210 nM; in data set [2], 370 nM; in data set [3], over 30000 nM; in data set [4] it was over 30000 nM. For the same compound, the inhibition at 3 µM in data set [5] was over 30%. This compound registered an inhibition at 10 µM in data set [6] of over 20%.

In the case of `O=C(CCCNc1ncc(C(F)(F)F)cc1Cl)NNS(=O)(=O)c1ccc(CNC(=O)c2ccc(Cl)cc2)cc1` [Example 80, 4-chloro-N-(4-{[2-(4-{[3-chloro-5-(trifluoromethyl)pyridin-2-yl]amino}butanoyl)hydrazino]sulfonyl}benzyl)benzamide], the half-maximal inhibitory concentration (IC50) in data set [1] is 250 nM; in data set [2], 1020 nM; in data set [3] it was over 30000 nM; in data set [4] it was over 30000 nM. For the same compound, the inhibition at 3 µM in data set [5] was over 30%. The same compound gave an inhibition at 10 µM in data set [6] of over 20%.

As for `O=C(CCCNc1ncc(C(F)(F)F)cc1Cl)NNS(=O)(=O)c1ccc(CNC(=O)c2ccccc2O)s1` [Example 20, N-[(5-{[2-(4-{[3-chloro-5-(trifluoromethyl)pyridin-2-yl]amino}butanoyl)hydrazino]sulfonyl}thien-2-yl)methyl]-2-hydroxybenzamide], the melting point (usually the temperature, or range, at which the solid turns liquid) lay within 174.5 to 175.5 °C.
